Data taken from patent US20250270209A1 (INTERLINE THERAPEUTICS, INC., priority 2022, published 2025).
pIC50: −log10 of the molar value.

Columns and labels:
LRRK2 wild type enzyme = LRRK2 wild type enzyme (Homo sapiens, UniProt Q5S007); assay: Biochemical Assay: LRRK2 TR-FRET (LanthaScreen) kinase assay with LRRKtide substrate; settings: LRRK2 Inhibition, Table 8
How it was run: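 Human wild-type LRRK2 (3 nM) preincubated 15 min with compound (11-point, 3-fold, top 10 μM), then reacted 120 min at 23 °C with 400 nM LRRKtide and 25 μM ATP, pH 8.0. Stopped with EDTA; Tb-anti-pLRRKtide TR-FRET read after 30 min.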

[1] = molecular target: T1, wild type LRRK2 overexpressed in recombinant HEK-293T cells (Homo sapiens, UniProt Q5S007); assay: pS935 LRRK2 Cell Assay (HTRF, phospho-LRRK2 Ser935); format: cell-based; settings: LRRK2 Inhibition, Table 8, 2 hours compound incubation
T1 construct: host or cells: HEK293T (transient transfection with pCMV-LRRK2 WT plasmid)
How it was run: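 HEK-293T cells transiently transfected with wild-type LRRK2 for 24 h, plated overnight, then treated 2 h at 37° C with compound (top 10 μM, 3-fold, 9 doses, duplicates, 0.2% DMSO). Lysates probed overnight at 23° C by sandwich HTRF for pSer935; 665/615 nm ratio read.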

T1 sequence (Q5S007 whole entry): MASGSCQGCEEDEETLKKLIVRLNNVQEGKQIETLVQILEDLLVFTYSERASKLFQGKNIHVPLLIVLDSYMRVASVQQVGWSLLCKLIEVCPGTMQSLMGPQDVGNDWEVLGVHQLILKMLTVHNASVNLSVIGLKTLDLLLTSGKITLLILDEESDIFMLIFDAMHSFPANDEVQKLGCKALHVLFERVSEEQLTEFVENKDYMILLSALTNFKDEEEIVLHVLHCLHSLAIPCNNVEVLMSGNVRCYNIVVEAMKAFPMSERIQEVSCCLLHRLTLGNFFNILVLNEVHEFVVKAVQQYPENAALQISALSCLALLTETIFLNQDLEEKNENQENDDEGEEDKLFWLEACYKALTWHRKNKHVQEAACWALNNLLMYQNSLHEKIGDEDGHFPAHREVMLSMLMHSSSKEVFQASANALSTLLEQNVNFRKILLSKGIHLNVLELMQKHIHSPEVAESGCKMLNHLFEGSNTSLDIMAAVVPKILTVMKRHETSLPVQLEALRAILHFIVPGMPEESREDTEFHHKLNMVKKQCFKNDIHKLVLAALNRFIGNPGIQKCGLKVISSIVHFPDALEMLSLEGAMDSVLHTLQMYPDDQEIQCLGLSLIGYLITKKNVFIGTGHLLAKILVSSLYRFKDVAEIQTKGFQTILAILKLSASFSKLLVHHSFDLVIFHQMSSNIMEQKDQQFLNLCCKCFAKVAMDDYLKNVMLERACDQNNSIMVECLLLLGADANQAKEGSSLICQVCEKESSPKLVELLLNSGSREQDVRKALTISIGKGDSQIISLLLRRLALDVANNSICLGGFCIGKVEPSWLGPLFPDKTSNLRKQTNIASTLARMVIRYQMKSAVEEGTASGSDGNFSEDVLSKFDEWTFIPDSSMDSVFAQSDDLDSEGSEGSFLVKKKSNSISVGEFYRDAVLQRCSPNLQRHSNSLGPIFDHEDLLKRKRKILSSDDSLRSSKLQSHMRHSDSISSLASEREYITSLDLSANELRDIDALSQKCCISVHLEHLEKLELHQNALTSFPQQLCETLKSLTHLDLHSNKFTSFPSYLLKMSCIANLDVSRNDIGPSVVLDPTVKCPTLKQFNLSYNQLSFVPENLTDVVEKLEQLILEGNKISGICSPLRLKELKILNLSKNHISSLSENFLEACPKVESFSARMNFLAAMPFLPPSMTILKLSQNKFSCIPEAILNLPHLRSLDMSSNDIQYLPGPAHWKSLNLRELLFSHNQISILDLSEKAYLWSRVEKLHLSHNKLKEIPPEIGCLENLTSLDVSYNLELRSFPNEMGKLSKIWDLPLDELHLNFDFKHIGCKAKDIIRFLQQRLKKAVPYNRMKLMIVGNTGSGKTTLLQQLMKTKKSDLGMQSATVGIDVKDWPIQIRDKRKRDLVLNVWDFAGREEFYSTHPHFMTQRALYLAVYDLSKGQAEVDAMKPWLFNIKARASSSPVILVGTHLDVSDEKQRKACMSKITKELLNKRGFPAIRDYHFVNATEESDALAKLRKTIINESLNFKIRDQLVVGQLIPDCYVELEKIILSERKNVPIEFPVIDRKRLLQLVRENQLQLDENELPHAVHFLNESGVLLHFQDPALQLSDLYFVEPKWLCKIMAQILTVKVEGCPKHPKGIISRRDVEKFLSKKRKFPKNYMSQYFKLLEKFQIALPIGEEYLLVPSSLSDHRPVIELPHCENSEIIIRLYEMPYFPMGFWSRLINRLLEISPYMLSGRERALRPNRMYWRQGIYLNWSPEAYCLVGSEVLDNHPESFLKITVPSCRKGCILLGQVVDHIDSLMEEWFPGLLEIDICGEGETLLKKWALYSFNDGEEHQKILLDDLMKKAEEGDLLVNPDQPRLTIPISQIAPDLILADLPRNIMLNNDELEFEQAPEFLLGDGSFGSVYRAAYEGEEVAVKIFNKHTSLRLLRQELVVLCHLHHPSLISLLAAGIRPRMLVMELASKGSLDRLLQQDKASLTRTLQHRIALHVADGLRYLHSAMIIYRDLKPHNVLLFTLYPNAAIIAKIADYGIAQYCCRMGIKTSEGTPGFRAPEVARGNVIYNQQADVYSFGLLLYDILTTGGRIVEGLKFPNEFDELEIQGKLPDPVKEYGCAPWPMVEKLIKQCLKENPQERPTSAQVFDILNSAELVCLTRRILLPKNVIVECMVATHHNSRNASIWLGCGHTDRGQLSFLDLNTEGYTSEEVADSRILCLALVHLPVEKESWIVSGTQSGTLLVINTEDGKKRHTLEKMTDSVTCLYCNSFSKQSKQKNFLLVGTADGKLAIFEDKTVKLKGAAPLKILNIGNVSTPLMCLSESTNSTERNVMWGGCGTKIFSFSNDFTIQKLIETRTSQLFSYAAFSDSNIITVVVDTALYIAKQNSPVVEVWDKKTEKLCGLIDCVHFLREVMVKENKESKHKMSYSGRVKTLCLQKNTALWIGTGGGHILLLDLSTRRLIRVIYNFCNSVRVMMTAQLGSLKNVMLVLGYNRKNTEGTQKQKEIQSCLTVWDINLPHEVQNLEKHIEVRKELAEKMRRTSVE
Sequence of LRRK2 wild type enzyme (Q5S007 whole entry): as above

Compound	pIC50 (LRRK2 wild type enzyme)	pIC50 [1]
C[C@@H]1C[C@H](n2c(CC(=O)Nc3cccnc3F)nc3cnc4ccc(C#N)cc4c32)CCO1 [Compound 317, N-(2-fluoro-3-pyridyl){3-[(2R,4R)-2-methyltetrahydro-2H-pyran-4-yl]-12-cyano-3,5,8-triazatricyclo[7.4.0.0^2,6]trideca-1(9),2(6),4,7,10,12-hexaen-4-yl}acetamide]	9.30	8.39
C[C@@H]1C[C@H](n2c(CC(=O)NCCCO)nc3cnc4ccc(C#N)cc4c32)CCO1 [Compound 181, 2-{8-cyano-1-[(2R,4R)-2-methyloxan-4-yl]-1H-imidazo[4,5-c]quinolin-2-yl}-N-(3-hydroxypropyl)acetamide]	9.24	6.42
C[C@@H]1C[C@H](n2c(CC(=O)Nc3cccnc3C(F)(F)F)nc3cnc4ccc(C#N)cc4c32)CCO1 [Compound 285, N-[2-(trifluoromethyl)-3-pyridyl]{3-[(2R,4R)-2-methyltetrahydro-2H-pyran-4-yl]-12-cyano-3,5,8-triazatricyclo[7.4.0.0^2,6]trideca-1,4,6,8,10,12-hexaen-4-yl}acetamide]	9.17	7.74
Cc1ncncc1NC(=O)Cc1nc2cnc3ccc(C#N)cc3c2n1[C@@H]1CCO[C@H](C)C1 [Compound 216, N-(4-methyl-5-pyrimidinyl){3-[(2R,4R)-2-methyltetrahydro-2H-pyran-4-yl]-12-cyano-3,5,8-triazatricyclo[7.4.0.0^2,6]trideca-1,4,6,8,10,12-hexaen-4-yl}acetamide]	9.37	7.91
Cc1cnncc1NC(=O)Cc1nc2cnc3ccc(C#N)cc3c2n1[C@@H]1CCO[C@H](C)C1 [Compound 258, N-(5-methyl-4-pyridazinyl){3-[(2R,4R)-2-methyltetrahydro-2H-pyran-4-yl]-12-cyano-3,5,8-triazatricyclo[7.4.0.0^2,6]trideca-1,4,6,8,10,12-hexaen-4-yl}acetamide]	9.28	7.76
C[C@@H]1C[C@H](n2c(CC(=O)Nc3ccncc3)nc3cnc4ccc(C#N)cc4c32)CCO1 [Compound 326, N-4-pyridyl{3-[(2R,4R)-2-methyltetrahydro-2H-pyran-4-yl]-12-cyano-3,5,8-triazatricyclo[7.4.0.0^2,6]trideca-1(9),2(6),4,7,10,12-hexaen-4-yl}acetamide]	9.31	8.31
C[C@@H]1C[C@H](n2c(C3CCN(S(=O)(=O)c4cnn(C)c4)CC3)nc3cnc4ccc(C#N)cc4c32)CCO1 [Compound 121, 2-{1-[(1-methyl-1H-pyrazol-4-yl)sulfonyl]piperidin-4-yl}-1-[(2R,4R)-2-methyloxan-4-yl]-1H-imidazo[4,5-c]quinoline-8-carbonitrile]	8.74	6.31
C[C@@H]1C[C@H](n2c(CC(=O)Nc3ncc(C4CC4)cn3)nc3cnc4ccc(C#N)cc4c32)CCO1 [Compound 344, N-(5-cyclopropyl-2-pyrimidinyl){3-[(2R)-2-methyltetrahydro-2H-pyran-4-yl]-12-cyano-3,5,8-triazatricyclo[7.4.0.0^2,6]trideca-1(9),2(6),4,7,10,12-hexaen-4-yl}acetamide]	9.34	8.39
Cc1cc(F)ncc1NC(=O)Cc1nc2cnc3ccc(C#N)cc3c2n1[C@@H]1CCO[C@H](C)C1 [Compound 205, N-(6-fluoro-4-methyl-3-pyridyl){3-[(2R,4R)-2-methyltetrahydro-2H-pyran-4-yl]-12-cyano-3,5,8-triazatricyclo[7.4.0.0^2,6]trideca-1,4,6,8,10,12-hexaen-4-yl}acetamide]	9.41	7.95
C[C@@H]1C[C@H](n2c(C3CN(S(=O)(=O)C4CC4)C3)nc3cnc4ccc(C#N)cc4c32)CCO1 [Compound 66, 2-[1-(cyclopropanesulfonyl)azetidin-3-yl]-1-[(2R,4R)-2-methyloxan-4-yl]-1H-imidazo[4,5-c]quinoline-8-carbonitrile]	8.47	6.28
COc1ccc(NC(=O)Cc2nc3cnc4ccc(C#N)cc4c3n2[C@@H]2CCO[C@H](C)C2)cn1 [Compound 298, N-(6-methoxy-3-pyridyl){3-[(2R,4R)-2-methyltetrahydro-2H-pyran-4-yl]-12-cyano-3,5,8-triazatricyclo[7.4.0.0^2,6]trideca-1,4,6,8,10,12-hexaen-4-yl}acetamide]	9.46	8.26
C[C@@H]1C[C@H](n2c(CC(=O)Nc3ncc(C(F)(F)F)cn3)nc3cnc4ccc(C#N)cc4c32)CCO1 [Compound 355, N-[5-(trifluoromethyl)-2-pyrimidinyl]{3-[(2R,4R)-2-methyltetrahydro-2H-pyran-4-yl]-12-cyano-3,5,8-triazatricyclo[7.4.0.0^2,6]trideca-1(9),2(6),4,7,10,12-hexaen-4-yl}acetamide]	9.31	8.41
C[C@@H]1C[C@H](n2c(CC(=O)NC3(C)CCC3)nc3cnc4ccc(C#N)cc4c32)CCO1 [Compound 303, N-1-methylcyclobutyl{3-[(2R,4R)-2-methyltetrahydro-2H-pyran-4-yl]-12-cyano-3,5,8-triazatricyclo[7.4.0.0^2,6]trideca-1(13),2(6),4,7,9,11-hexaen-4-yl}acetamide]	8.89	7.33
C[C@@H]1C[C@H](n2c(CNc3ncccn3)nc3cnc4ccc(C#N)cc4c32)CCO1 [Compound 105, 1-[(2R,4R)-2-methyloxan-4-yl]-2-{[(pyrimidin-2-yl)amino]methyl}-1H-imidazo[4,5-c]quinoline-8-carbonitrile]	8.46	6.62
C[C@@H]1C[C@H](n2c(C3CC(=O)N(C4COC4)C3)nc3cnc4ccc(C#N)cc4c32)CCO1 (stereo partly drawn) [Compound 46, 1-[(2R,4R)-2-methyloxan-4-yl]-2-[1-(oxetan-3-yl)-5-oxopyrrolidin-3-yl]-1H-imidazo[4,5-c]quinoline-8-carbonitrile]	8.23	5.88
C[C@@H]1C[C@H](n2c(CS(=O)(=O)C3CC3)nc3cnc4ccc(C#N)cc4c32)CCO1 [Compound 74, 2-[(cyclopropanesulfonyl)methyl]-1-[(2R,4R)-2-methyloxan-4-yl]-1H-imidazo[4,5-c]quinoline-8-carbonitrile]	8.23	6.37
C[C@@H]1C[C@H](n2c(CC(=O)NCc3ccncc3)nc3cnc4ccc(C#N)cc4c32)CCO1 [Compound 15, 2-{8-cyano-1-[(2R,4R)-2-methyloxan-4-yl]-1H-imidazo[4,5-c]quinolin-2-yl}-N-[(pyridin-4-yl)methyl]acetamide]	9.53	7.80
C[C@@H]1C[C@H](n2c(CC(=O)Nc3cnn(C)c3CO)nc3cnc4ccc(C#N)cc4c32)CCO1 [Compound 158, 2-{8-cyano-1-[(2R,4R)-2-methyloxan-4-yl]-1H-imidazo[4,5-c]quinolin-2-yl}-N-[5-(hydroxymethyl)-1-methyl-1H-pyrazol-4-yl]acetamide]	9.34	6.57
Cc1nn(C)c(C)c1NC(=O)Cc1nc2cnc3ccc(C#N)cc3c2n1[C@@H]1CCO[C@H](C)C1 [Compound 187, 2-{8-cyano-1-[(2R,4R)-2-methyloxan-4-yl]-1H-imidazo[4,5-c]quinolin-2-yl}-N-(1,3,5-trimethyl-1H-pyrazol-4-yl)acetamide]	9.62	8.02
